Results published in the supplement of paper PMC11451515.

System: P12-Ichikawa
Assay: cell viability relative to DMSO control; higher = less cytotoxic
Settings: 48 h
Outline: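 Leukemia cells (NOMO1 or SEM, 500 cells/well; P12-Ichikawa, 1000 cells/well) were seeded in 5 μl in 1536-well plates after at least four passages of adaptation to each medium. They received library compounds in DMSO by pin dosing, 11 threefold points from 47 μM to 0.79 nM. Luminescence with CellTiter-Glo One was read after 48 h at 37°C. Viability is stated per plate relative to DMSO wells, with cell-free wells as background.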

[1] = HPLM + 10% dialyzed FBS, 0.000781 µM
[2] = HPLM + 10% dialyzed FBS, 0.00234 µM
[3] = HPLM + 10% dialyzed FBS, 0.00702 µM
[4] = HPLM + 10% dialyzed FBS, 0.0211 µM
[5] = HPLM + 10% dialyzed FBS, 0.0632 µM
[6] = HPLM + 10% dialyzed FBS, 0.19 µM
[7] = HPLM + 10% dialyzed FBS, 0.569 µM
[8] = HPLM + 10% dialyzed FBS, 1.71 µM
[9] = HPLM + 10% dialyzed FBS, 5.12 µM
[10] = HPLM + 10% dialyzed FBS, 15.4 µM
[11] = HPLM + 10% dialyzed FBS, 46.1 µM
[12] = RPMI 5 mM glucose + 10% FBS, 0.000781 µM
[13] = RPMI 5 mM glucose + 10% FBS, 0.00234 µM
[14] = RPMI 5 mM glucose + 10% FBS, 0.00702 µM
[15] = RPMI 5 mM glucose + 10% FBS, 0.0211 µM
[16] = RPMI 5 mM glucose + 10% FBS, 0.0632 µM
[17] = RPMI 5 mM glucose + 10% FBS, 0.19 µM
[18] = RPMI 5 mM glucose + 10% FBS, 0.569 µM
[19] = RPMI 5 mM glucose + 10% FBS, 1.71 µM
[20] = RPMI 5 mM glucose + 10% FBS, 5.12 µM
[21] = RPMI 5 mM glucose + 10% FBS, 15.4 µM
[22] = RPMI 5 mM glucose + 10% FBS, 46.1 µM
[23] = RPMI 5 mM glucose + 10% dialyzed FBS, 0.000781 µM
[24] = RPMI 5 mM glucose + 10% dialyzed FBS, 0.00234 µM
[25] = RPMI 5 mM glucose + 10% dialyzed FBS, 0.00702 µM
[26] = RPMI 5 mM glucose + 10% dialyzed FBS, 0.0211 µM
[27] = RPMI 5 mM glucose + 10% dialyzed FBS, 0.0632 µM
[28] = RPMI 5 mM glucose + 10% dialyzed FBS, 0.19 µM
[29] = RPMI 5 mM glucose + 10% dialyzed FBS, 0.569 µM
[30] = RPMI 5 mM glucose + 10% dialyzed FBS, 1.71 µM
[31] = RPMI 5 mM glucose + 10% dialyzed FBS, 5.12 µM
[32] = RPMI 5 mM glucose + 10% dialyzed FBS, 15.4 µM
[33] = RPMI 5 mM glucose + 10% dialyzed FBS, 46.1 µM

| SMILES | cell viability [1] | cell viability [2] | cell viability [3] | cell viability [4] | cell viability [5] | cell viability [6] | cell viability [7] | cell viability [8] | cell viability [9] | cell viability [10] | cell viability [11] | cell viability [12] | cell viability [13] | cell viability [14] | cell viability [15] | cell viability [16] | cell viability [17] | cell viability [18] | cell viability [19] | cell viability [20] | cell viability [21] | cell viability [22] | cell viability [23] | cell viability [24] | cell viability [25] | cell viability [26] | cell viability [27] | cell viability [28] | cell viability [29] | cell viability [30] | cell viability [31] | cell viability [32] | cell viability [33] |
| --- | --- | --- | --- | --- | --- | --- | --- | --- | --- | --- | --- | --- | --- | --- | --- | --- | --- | --- | --- | --- | --- | --- | --- | --- | --- | --- | --- | --- | --- | --- | --- | --- | --- |
| CC/C(=C(/c1ccc(O)cc1)c1ccc(OCCNC)cc1)c1ccccc1 | 105% | 108% | 110% | 115% | 118% | 94.8% | 104% | 106% | 71.9% | 63% | 68.6% | 116% | 108% | 109% | 108% | 114% | 122% | 113% | 107% | 68.3% | 53.7% | 42% | 115% | 116% | 116% | 117% | 120% | 126% | 119% | 101% | 64.7% | 49.4% | 46.5% |
| OC1=C(O)C2=C(\C=C/C(=O)O2)C=C1 | 99% | 104% | 114% | 107% | 101% | 119% | 114% | 117% | 114% | 107% | 81.1% | 109% | 115% | 118% | 110% | 99.4% | 113% | 124% | 116% | 112% | 109% | 68% | 95.1% | 109% | 104% | 104% | 101% | 97.5% | 98% | 107% | 105% | 103% | 58.3% |
| CNC1CCC(N(Cc2cccc(-c3ccncc3)c2)C(=O)c2sc3ccccc3c2Cl)CC1 (configuration not stated) | 96.9% | 102% | 107% | 99.9% | 97.3% | 99.7% | 107% | 13.8% | 4.58% | 1.97% | 0.291% | 89.2% | 92.9% | 91.4% | 96.6% | 94.5% | 94.8% | 102% | 61.3% | 4.21% | 3.93% | 1.13% | 79.1% | 86.1% | 86.9% | 95.8% | 86.2% | 94.4% | 97.1% | 44.7% | 4.4% | 3.5% | 0.803% |
| C\C1=C\C(=O)OC2=C1C=CC(=C2)O | 122% | 121% | 121% | 122% | 109% | 116% | 108% | 107% | 106% | 102% | 93% | 112% | 119% | 115% | 122% | 109% | 114% | 107% | 111% | 99.9% | 118% | 99.1% | 122% | 115% | 114% | 122% | 120% | 108% | 114% | 104% | 103% | 104% | 106% |
| CC(=O)Oc1ccccc1C(=O)O | 99.8% | 96.4% | 102% | 93.9% | 101% | 101% | 96.6% | 95.5% | 90.3% | 96.4% | 101% | 106% | 101% | 104% | 98.6% | 101% | 86.5% | 87.3% | 105% | 95.9% | 96.4% | 99.3% | 97.2% | 97.5% | 98.7% | 105% | 101% | 93.6% | 89.2% | 99.6% | 93.2% | 104% | 103% |
| FC(F)(F)c1ccc(/C=C/c2nc(COc3ccc(CCCCn4ccnn4)cc3)co2)cc1 | 119% | 124% | 110% | 97.3% | 88% | 86.9% | 83.4% | 85.6% | 40.4% | 35.6% | 81.6% | – | – | – | – | – | – | – | – | – | – | – | – | – | – | – | – | – | – | – | – | – | – |
| CCC1(C)CC(=O)NC1=O (configuration not stated) | 101% | 103% | 104% | 104% | 108% | 116% | 100% | 102% | 94.9% | 96.7% | 94.7% | 99.4% | 105% | 115% | 101% | 111% | 105% | 102% | 99.3% | 106% | 92% | 87.4% | 101% | 101% | 101% | 97.3% | 104% | 104% | 102% | 96.3% | 96.3% | 97.1% | 88.9% |
| C[C@](O)(COc1ccc(C#N)cc1)C(=O)Nc1ccc(C#N)c(C(F)(F)F)c1 | 85.2% | 81.8% | 93% | 94.8% | 99.2% | 93.2% | 102% | 93.9% | 89.7% | 94.6% | 95.3% | 77.6% | 84.4% | 84.3% | 94.1% | 83.8% | 92.2% | 89% | 86.7% | 83.9% | 91% | 80.5% | 80.9% | 82.6% | 78.6% | 81.6% | 83.6% | 76.1% | 82.4% | 80.7% | 77.5% | 82.1% | 68.8% |
